Data set [1] concerns lymphocyte layer of cells from whole blood. As to the kind of experiment: Cell tracing by dye dilution, flow cytometry (Compound 2 vs CELLTRACE Far Red DDAO). In kind it is cell-based. The conditions noted are these: 5 μM, 20 min 37° C.; stimulated 5 days with DYNABEADS Human T-Activator CD3/CD28; 633/635 nm excitation, 660/20 emission filter. How it is done:
The whole blood sample (20 mL) was diluted in 20 mL of PBS and then centrifuged for 30 min after addition of FICOLL-PAQUE Plus (15 mL) (GE Healthcare). The lymphocyte layer of cells was suspended in 25 mL of PBS buffer and centrifuged for 5 min. The cells were counted on the COUNTESS Automated Counter and the concentration was adjusted to 10^6 cells/mL. 10 mL of cells was incubated with either Compound 2 (FIG. 1A) or CELLTRACE Far Red DDAO (FIG. 1B) (Thermo Fisher Scientific) (5 μM) for 20 min in a 37° C. water bath. After incubation the cells were treated with 40 mL of OPTMIZER T Cell Expansion (Thermo Fisher Scientific) for 5 min. The treatment with OPTMIZER T Cell Expansion was repeated one more time after centrifugation. Next, the stained cells were stimulated with 50 μL DYNABEADS Human T-Activator CD3/CD28 (Thermo Fisher Scientific) per 1 mL of cells for 5 days. The stimulated cells were then analyzed using an ATTUNE flow cytometer (Thermo Fisher Scientific) with 633/635 nm excitation and a 660/20 bandpass emission filter.
Background: Flow cytometry measures light scatter and fluorescence of single cells or particles in a stream.

Another data set concerns A549 cells. As to the kind of experiment: CYQUANT Direct cytotoxicity assay. The conditions noted are these: 10 μM, 30 mins at 37° C.; assayed on days 1, 2 and 3.
Data set [2] deals with PBMCs. As to the kind of experiment: Cytotoxicity test in PBMCs, viability dye (SYTOX) and flow cytometry. The conditions noted are these: after proliferation for 3 to 5 days.
Description: (§1) To test for cytotoxicity, PBMCs were stained with CELLTRACE (Thermo Fisher Scientific) CFSE (positive control) or Compound 2. The cells were split into samples for culturing and one sample was stimulated with anti-hCD3 (clone UCHT1) and supplemented with recombinant hIL2. Dye loading was observed by fluorescent microscopy. After proliferation for 3 to 5 days, the samples were stained with the appropriate viability dye (e.g., SYTOX dye) and analyzed by flow cytometry (see Table 3).
Data set [3] has as its system PBMCs.
Description: as §1

Consider two molecules from US10739330B2, “Carbopyronone compounds useful as diagnostic adjuvants” (LIFE TECHNOLOGIES CORPORATION, priority 2014, dated 2020).

Read-outs that look alike come from different tables or passages of the source.

Protocol for A549 cells: A549 cells plated in a 96 well plate were labeled with [sequence] […] The LCIS was then aspirated from cells and complete media added for an overnight incubation. The following day (Day 1) cells were assayed for cytotoxicity using the CYQUANT Direct assay (Thermo Fisher Scientific).

As for `CN1CCCc2cc3c(cc21)C(C)(C)c1cc2c(cc1=C3c1ccccc1C(=O)[O-])CCC[N+]=2CCCCCC(=O)ON1C(=O)CCC1=O` [Compound 2, 2-(1-(6-((2,5-dioxopyrrolidin-1-yl)oxy)-6-oxohexyl)-11-metheyliumyl-13,13-dimethyl-1,2,3,4,8,9,10,13-octahydro-1114-benzo[1,2-g:5,4-g′]diquinolin-6-yl)benzoate], the “generations of cells traced” value in data set [1] is “seven”. Moreover, in the data set on A549 cells, the “cytotoxicity compared to DMSO alone” value is reported as “no cytotoxicity”. Besides, the “% Live Cells” value amounted to 53% with PBMCs [2] (2 μM dye), 55% in the data set with PBMCs [2] (5 μM dye) and 64% in the data set on PBMCs [2] (10 μM dye).
As for “Carboxyfluorescein diacetate succinimidyl ester [CELLTRACE CFSE]”, in the data set on PBMCs [3], the “% Live Cells” value is reported as 52%.
